Source: BigSolDB 2.1

Nc1ccc(Cc2ccc(N)cc2)cc1
solubility (mole fraction)
Settings	293.15 K	298.15 K	303.15 K	308.15 K	313.15 K	318.15 K	323.15 K	328.15 K	333.15 K
in benzene	0.0207	0.0299	0.039	0.0499	0.066	0.0865	0.114	–	–
in chloroform	0.123	0.142	0.165	0.197	0.23	0.269	0.306	–	–
in ethanol	0.0335	0.0461	0.0637	0.0842	0.11	0.15	0.198	0.267	–
in isopropanol	0.011	0.0136	0.0178	0.0236	0.0312	0.0411	0.0536	0.0696	0.0898
in methanol	0.127	0.157	0.187	0.219	0.259	0.3	0.347	0.403	–
in n-butanol	0.0187	0.0231	0.0296	0.0371	0.0476	0.0582	0.0713	0.0885	0.108
in toluene	0.0156	0.0195	0.0244	0.03	0.038	0.0487	0.0599	0.075	0.0932
